Article PMC7935272 (PLoS Pathogens, 2021)
“And” between values parts separate entries of the source, which are not always exact repeats. Identical values can stand only once. “Also recorded” adds a separate entry of the source. Like-named read-outs stand apart in the source and are kept apart here.

How the values were obtained:
MeV L = target: T1, MeV L (Measles virus, UniProt P12576); assay: MeV minigenome dose-response assay, L WT; type: cell-based; settings: 40 h, ERDRP-0519 0.005 µM; L WT; Figure 1D; read-out: minigenome activity, individual repeat
T1 construct: expressed in transfected cells; host or cells: BSR-T7/5

MeV L full length = MeV L full length (Measles virus, UniProt Q9WMB3); assay: Biolayer interferometry, full-length MeV P-L; type: binding; settings: for S5 A BLI sensorgram response / S5 D BLI response versus compound conc.: MeV L full length; for steady-state BLI sensor response: S7 A
RSV L = RSV L (Human respiratory syncytial virus A, UniProt P28887); assay: Biolayer interferometry, RSV L specificity control; type: binding; settings: for steady-state BLI sensor response: S7 C
[1] = test system: MeV L-P complexes L H589Y; type: biochemical; settings: de novo initiation, L H589Y vs WT
[2] = test system: MeV L-P complexes L T776A; type: biochemical; settings: primer extension, L T776A vs WT
WT MeV L-P complexes = WT MeV L-P complexes (Measles virus, UniProt Q9WMB3); assay: Primer extension RdRP assay, GTP only (first nucleotide), L WT; type: biochemical; settings: 5 h, read-out: first nucleotide incorporation signal (FIG 4D densitometry, first row = 100)
in vitro = type: cell-based, African green monkey; settings: African green monkey; Vero-hSLAM, 72 hours
Protocol: (§1) To determine cytotoxic concentrations Vero-hSLAM cells were plated in 96 well plates (1.1 × 10^4 per well) and incubated with three-fold serial dilutions of compound. After incubation of uninfected cells for 72 hours, PrestoBlue substrate (Invitrogen) was added to quantify cell metabolic activity as described. Signal was measured using a BioTek H1 synergy multimode microplate reader. Where applicable, cytotoxic concentrations (CC50) were calculated based on four-parameter variable slope regression modeling.

Vero-hSLAM cells = assay: in vitro; type: cell-based, African green monkey
Protocol: as §1

MeV [3] = assay: Cell-based anti-MeV assays of earlier work
MeV [4] = settings: cited from earlier work
[5] = test system: canine distemper virus (CDV); settings: oral treatment initiated at first day of viremia; cited from earlier work
MeV [6] = assay: Antiviral dose-response assay, MeV-NanoPEST reporter virus in Vero-hSLAM cells

Cn1nc(C(F)(F)F)cc1C(=O)Nc1ccc(S(=O)(=O)N2CCCC[C@H]2CCN2CCOCC2)cc1 [ERDRP-0519, S(=O)(=O)(N1[C@H](CCN2CCOCC2)CCCC1)c1ccc(NC(=O)c2n(C)nc(C(F)(F)F)c2)cc1]
remaining activity at 0.005 µM (MeV L): 97% | S5 A BLI sensorgram response (MeV L full length; 0.003 µM, time 0 s): -0.0003139 | S5 A BLI sensorgram response (MeV L full length; 0.003 µM, time 0.2 s): -0.001098 | S5 A BLI sensorgram response (MeV L full length; 0.003 µM, time 0.4 s): -0.001645 | S5 A BLI sensorgram response (MeV L full length; 0.003 µM, time 0.6 s): -0.002393 | S5 A BLI sensorgram response (MeV L full length; 0.027 µM, time 0 s): 0.0009777 | S5 A BLI sensorgram response (MeV L full length; 0.027 µM, time 0.2 s): 0.001373 | S5 A BLI sensorgram response (MeV L full length; 0.027 µM, time 0.4 s): 0.001785 | S5 A BLI sensorgram response (MeV L full length; 0.027 µM, time 0.6 s): 0.001728 | S5 A BLI sensorgram response (MeV L full length; 0.08 µM, time 0 s): 0.003123 | S5 A BLI sensorgram response (MeV L full length; 0.08 µM, time 0.2 s): 0.003018 | S5 A BLI sensorgram response (MeV L full length; 0.08 µM, time 0.4 s): 0.00257 | S5 A BLI sensorgram response (MeV L full length; 0.08 µM, time 0.6 s): 0.002431 | S5 A BLI sensorgram response (MeV L full length; 0.74 µM, time 0 s): 0.002177 | S5 A BLI sensorgram response (MeV L full length; 0.74 µM, time 0.2 s): 0.002548 | S5 A BLI sensorgram response (MeV L full length; 0.74 µM, time 0.4 s): 0.002706 | S5 A BLI sensorgram response (MeV L full length; 0.74 µM, time 0.6 s): 0.002805 | S5 A BLI sensorgram response (MeV L full length; 2.22 µM, time 0 s): 0.01086 | S5 A BLI sensorgram response (MeV L full length; 2.22 µM, time 0.2 s): 0.01025 | S5 A BLI sensorgram response (MeV L full length; 2.22 µM, time 0.4 s): 0.009623 | S5 A BLI sensorgram response (MeV L full length; 2.22 µM, time 0.6 s): 0.009062 | S5 D BLI response versus compound conc. (MeV L full length; compound conc. 0.003 uM): 0.005655 | S5 D BLI response versus compound conc. (MeV L full length; compound conc. 0.027 uM): 0.009916 | S5 D BLI response versus compound conc. (MeV L full length; compound conc. 0.08 uM): 0.008265 | S5 D BLI response versus compound conc. (MeV L full length; compound conc. 0.74 uM): 0.01334 | steady-state BLI sensor response (MeV L full length; 0.003 uM): 0.006846 | steady-state BLI sensor response (MeV L full length; 0.027 uM): 0.008208 | steady-state BLI sensor response (MeV L full length; 0.08 uM): 0.009438 | steady-state BLI sensor response (MeV L full length; 0.74 uM): 0.01375 | steady-state BLI sensor response (MeV L full length; 6.67 uM): 0.01276 | steady-state BLI sensor response (MeV L full length; 20 uM): 0.01504 | binding to RSV polymerase (RSV L; BLI specificity control): No appreciable binding; also recorded: no binding was detected | steady-state BLI sensor response (RSV L; 0.003 uM): 0.004459 | steady-state BLI sensor response (RSV L; 0.009 uM): 0.00801 | steady-state BLI sensor response (RSV L; 0.027 uM): 0.008695 | steady-state BLI sensor response (RSV L; 0.24 uM): 0.01534 | steady-state BLI sensor response (RSV L; 0.74 uM): 0.01342 | steady-state BLI sensor response (RSV L; 2.22 uM): 0.007742 | steady-state BLI sensor response (RSV L; 6.67 uM): 0.01053 | steady-state BLI sensor response (RSV L; 20 uM): 0.00593 | increase in IC50 value [1]: 24 fold | IC50 increase [2]: 2.5 fold | remaining activity at 0.0152416 µM (WT MeV L-P complexes; 0.0152416 µM): 92.5% | remaining activity at 0.0457247 µM (WT MeV L-P complexes; 0.0457247 µM): 96.8% | remaining activity at 0.137174 µM (WT MeV L-P complexes; 0.137174 µM): 64.3% | remaining activity at 0.411523 µM (WT MeV L-P complexes; 0.411523 µM): 40.5% | remaining activity at 1.23457 µM (WT MeV L-P complexes; 1.23457 µM): 30.4% | remaining activity at 3.7037 µM (WT MeV L-P complexes; 3.7037 µM): 30% | remaining activity at 11.1111 µM (WT MeV L-P complexes; 11.1111 µM): 27.6% | remaining activity at 33.3333 µM (WT MeV L-P complexes; 33.3333 µM): 26% | CC50 (in vitro): > 100 µM | Cytotoxicity, normalized metabolic activity (Figure 5B) (Vero-hSLAM cells; cpd concentration 0.045725): 92.6189 and 91.5198 and 89.1889 | Cytotoxicity, normalized metabolic activity (Figure 5B) (Vero-hSLAM cells; cpd concentration 0.137174): 93.2443 and 94.6845 and 97.0722 | Cytotoxicity, normalized metabolic activity (Figure 5B) (Vero-hSLAM cells; cpd concentration 0.411523): 98.6261 and 97.1101 and 101.469 | Cytotoxicity, normalized metabolic activity (Figure 5B) (Vero-hSLAM cells; cpd concentration 1.23457): 100.919 and 98.2092 and 94.5139 | Cytotoxicity, normalized metabolic activity (Figure 5B) (Vero-hSLAM cells; cpd concentration 3.7037): 98.683 and 65.7665 and 99.5736 | Cytotoxicity, normalized metabolic activity (Figure 5B) (Vero-hSLAM cells; cpd concentration 11.1111): 96.5984 and 96.9017 and 98.6451 | Cytotoxicity, normalized metabolic activity (Figure 5B) (Vero-hSLAM cells; cpd concentration 33.3333): 105.751 and 104.652 and 106.244 | Cytotoxicity, normalized metabolic activity (Figure 5B) (Vero-hSLAM cells; cpd concentration 100): 82.5753 and 96.0868 and 96.0678 | IC50 (MeV [3]; Figure 7A source data): 0.06 µM | IC50 (MeV [3]; −log10(EC50) of literature EC50): 0.0601 µM | IC50 (MeV [4]; Figure 7A source data): 0.059 µM | EC50 (MeV [4]; experimental activity, read-out: EC50): 0.059 µM | EC50 (MeV [4]; read-out: EC50 in cell-based anti-MeV assays): 0.07 to 0.23 µM | survival [5]: all treated animals survived | EC50 (MeV [6]): 0.2 µM | MeV inhibition, normalized reporter signal (Figure 5B) (MeV [6]; cpd concentration 0.009145): 105.005 and 86.0196 | MeV inhibition, normalized reporter signal (Figure 5B) (MeV [6]; cpd concentration 0.027435): 126.572 and 81.3143 | MeV inhibition, normalized reporter signal (Figure 5B) (MeV [6]; cpd concentration 0.082305): 101.803 and 75.4494 | MeV inhibition, normalized reporter signal (Figure 5B) (MeV [6]; cpd concentration 0.246914): 43.9689 and 25.1431 | MeV inhibition, normalized reporter signal (Figure 5B) (MeV [6]; cpd concentration 0.740741): 3.4563 and 3.061 | MeV inhibition, normalized reporter signal (Figure 5B) (MeV [6]; cpd concentration 2.22222): 0.8619 and 1.175 | MeV inhibition, normalized reporter signal (Figure 5B) (MeV [6]; cpd concentration 6.66667): 0.4673 and 0.8278
